Values quoted from earlier work, collected in US10722516B2, “Use of landiolol hydrochloride in the long-term treatment of tachyarrhythmias” (AOP Orphan Pharmaceuticals AG, priority 2013, dated 2020).
Counter-ions that a name gives are not always drawn.

Legend:
[1] = in vivo; cited from earlier work
[2] = after discontinuing the drug; cited from earlier work

COC(=O)CCc1ccc(OCC(O)CNC(C)C)cc1 (stereo not shown) [Esmolol, Esmolol hydrochloride]
alpha-distribution half-life [1]: approximately 2 minutes
total body clearance relative to cardiac output [1]: ~3 times
total body clearance relative to hepatic blood flow [1]: ~14 times
time to resolution of hypotension symptoms [2]: ≤ 30 min
